In PubChem BioAssay (NCI):
“And” between values parts separate entries of the source, which are not always exact repeats. Identical values can stand only once.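 Protocol summary: plate cells (96-well), add compound at 5 concentrations, incubate 48 h, interpolate endpoints linearly. GI50 is the concentration that inhibits growth by half. The concentration for full growth arrest is given as TGI.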

What was measured:
Assay in all cases: NCI tumour cell line growth inhibition, 48 h
[1] = system: 786-0 renal
[2] = system: ACHN renal
[3] = system: BT-549 breast
[4] = system: DU-145 prostate
[5] = system: HOP-18 NSCLC
[6] = system: HS 578T breast
[7] = system: M14 melanoma
[8] = system: MDA-MB-435
[9] = system: MDA-N
[10] = system: P388/ADR leukemia
[11] = system: PC-3 prostate
[12] = system: SR leukemia
[13] = system: T-47D breast
[14] = system: TK-10 renal
[15] = system: A549 NSCLC
[16] = system: CAKI-1 renal
[17] = system: CCRF-CEM leukemia
[18] = system: COLO 205 colon
[19] = system: DLD-1 colon
[20] = system: DMS 114 small cell lung
[21] = system: DMS 273 small cell lung
[22] = system: HCC-2998 colon
[23] = system: HCT-116 colon
[24] = system: HL-60(TB) leukemia
[25] = system: HOP-62 NSCLC
[26] = system: HOP-92 NSCLC
[27] = system: HT29 colon
[28] = system: IGROV1 ovarian
[29] = system: K-562 leukemia
[30] = system: KM12 colon
[31] = system: LOX IMVI melanoma
[32] = system: LXFL 529 NSCLC
[33] = system: M19-MEL melanoma
[34] = system: MALME-3M melanoma
[35] = system: MOLT-4 leukemia
[36] = system: NCI-H23 lung
[37] = system: NCI-H460 lung
[38] = system: NCI-H522 lung
[39] = system: OVCAR-3 ovarian
[40] = system: OVCAR-4 ovarian
[41] = system: OVCAR-5 ovarian
[42] = system: OVCAR-8 ovarian
[43] = system: RXF 393 renal
[44] = system: RXF-631 renal
[45] = system: SF-268 CNS
[46] = system: SF-295 CNS
[47] = system: SF-539 CNS
[48] = system: SK-MEL-28 melanoma
[49] = system: SK-MEL-5 melanoma
[50] = system: SN12C renal
[51] = system: SNB-19 CNS
[52] = system: SNB-75 CNS
[53] = system: SNB-78 CNS
[54] = system: SW-620 colon
[55] = system: U251 CNS
[56] = system: UACC-257 melanoma
[57] = system: UACC-62 melanoma
[58] = system: UO-31 renal
[59] = system: XF 498 CNS

`COc1cc2cc(c1Cl)N(C)C(=O)C[C@H](OC(=O)[C@H](C)N(C)C(C)=O)[C@]1(C)O[C@H]1[C@H](C)[C@@H]1C[C@@](O)(NC(=O)O1)[C@H](OC)C=C/C=C(\C)C2` gave a GI50 [1] of 0.0019 µM, a GI50 [2] of 0.00211 µM and a TGI [2] of 0.0595 µM. The GI50 [3] was 0.000623 µM, the GI50 [4] was 0.0553 µM and the TGI [5] was > 95.6 µM and 239 µM. It also gave a GI50 [6] of 0.000745 µM, a GI50 [7] of 0.00128 µM and a GI50 [8] of 0.00168 µM. For the same molecule, the TGI [8] was 0.00755 µM and < 0.0146 µM, the TGI [9] was 0.0709 µM and 0.0274 µM and the TGI [10] was 1.87 µM and 9.07 µM. The GI50 [11] was 0.0371 µM, the GI50 [12] was 0.000336 µM and the TGI [12] was 0.0106 µM. For the same molecule, the GI50 [13] was 0.0142 µM, the TGI [13] was 0.0714 µM and the GI50 [14] was 0.0144 µM. For the same molecule, the TGI [14] was 0.0804 µM.

`CC(C)(C)C(=O)O[C@@H]1COC2C(O)COC21` (stereo not given in full) was tested, and the TGI [1] was greater than 100 µM, the TGI [15] was greater than 100 µM and the TGI [2] was greater than 100 µM. It also gave a TGI [16] greater than 100 µM, a TGI [17] greater than 100 µM and a TGI [18] greater than 100 µM. It also gave a TGI [19] greater than 100 µM, a TGI [20] greater than 100 µM and a TGI [21] greater than 100 µM. For the same molecule, the TGI [22] was greater than 100 µM, the TGI [23] was greater than 100 µM and the TGI [24] was greater than 100 µM. For the same molecule, the TGI [5] was greater than 100 µM, the TGI [25] was greater than 100 µM and the TGI [26] was greater than 100 µM. The TGI [27] was greater than 100 µM, the TGI [28] was greater than 100 µM and the TGI [29] was greater than 100 µM. It also gave a TGI [30] greater than 100 µM, a TGI [31] greater than 100 µM and a TGI [32] greater than 100 µM. For the same molecule, the TGI [7] was greater than 100 µM, the TGI [33] was greater than 100 µM and the TGI [34] was greater than 100 µM. For the same molecule, the TGI [35] was 49 µM, the TGI [36] was greater than 100 µM and the TGI [37] was greater than 100 µM. For the same molecule, the TGI [38] was greater than 100 µM, the TGI [39] was greater than 100 µM and the TGI [40] was greater than 100 µM. It also gave a TGI [41] greater than 100 µM, a TGI [42] greater than 100 µM and a TGI [43] greater than 100 µM. It also gave a TGI [44] greater than 100 µM, a TGI [45] greater than 100 µM and a TGI [46] greater than 100 µM. It also gave a TGI [47] greater than 100 µM, a TGI [48] greater than 100 µM and a TGI [49] greater than 100 µM. It also gave a TGI [50] greater than 100 µM, a TGI [51] greater than 100 µM and a TGI [52] greater than 100 µM. The TGI [53] was greater than 100 µM, the TGI [12] was greater than 100 µM and the TGI [54] was greater than 100 µM. It also gave a TGI [14] greater than 100 µM, a TGI [55] greater than 100 µM and a TGI [56] greater than 100 µM. The TGI [57] was greater than 100 µM, the TGI [58] was greater than 100 µM and the TGI [59] was greater than 100 µM.
